Results as given in ChEMBL document CHEMBL1155752, “Isolation and structure of korolkoside, a bis-iridoid glucoside from Lonicera korolkovii” (J Nat Prod, 2001).

Key:
[1] = system: Mus musculus; experiment: Acute toxicity in ddY mouse at 2 mg/mouse, ip assessed as death after 12 hrs; assay type: organism-based; settings: in vivo
[2] = system: Mus musculus; experiment: Acute toxicity in ddY mouse at 38 mg/mouse, ip assessed as death after 12 hrs; assay type: organism-based; settings: in vivo

Row | Structure (SMILES) | Activity [1] | Activity [2]
1 | C=C[C@H]1[C@H](O[C@@H]2O[C@H](CO)[C@@H](O)[C@H](O)[C@H]2O)OC=C(C(=O)OC)[C@H]1C[C@@H]1OC[C@H]2O[C@@H](O[C@@H]3OC=C(C(=O)OC)[C@@H](CC(OC)OC)[C@H]3C=C)[C@H](O)[C@@H](O)[C@@H]2O1 [KOROLKOSIDE] | Non-toxic | 
2 | C=C[C@H]1[C@H](O[C@@H]2O[C@H](CO)[C@@H](O)[C@H](O)[C@H]2O)OC=C(C(=O)OC)[C@H]1CC(OC)OC [SECOLOGANIN DIMETHYL ACETAL] |  | Non-toxic
